Results from article PMC9884808, “Pharmacokinetics, tissue distribution, and antitumor activity of a novel compound, NY-2, in non-small cell lung cancer” (Frontiers in Pharmacology, 2023).

Experiments:
HepG2 = assay: MTT cell viability assay; assay type: cell-based, human; details: Homo sapiens, HepG2 hepatocellular carcinoma cells
Method: (§1) The human colorectal cancer cell lines, HCT116 and LoVo, the breast cancer cell line, T47D, the hepatocellular carcinoma cell line, HepG2, the normal human liver cell line, HL7702, human umbilical vein endothelial cells (HUVECs), and the non-small cell lung cancer cell lines, A549, H1993, HCC827, H460, were purchased from the American Type Culture Collection (Manassas, VA, United States). Cell lines were cultured in the recommended RPMI-1640 medium (AE24464298, Hyclone, United States) and DMEM medium (AE29422278, Hyclone, United States) supplemented with 10% fetal bovine serum (FBS; JC63470, FB15015, Clark, United States) with 1% penicillin-streptomycin. Cells were maintained in an incubator at 37°C with 5% CO2 (HF90,Sanyo, Japan) and passaged every 48–72 h, after detaching with 0.25% trypsin (Sigma, United States). The compounds ZLDI-8 and NY-1 to -15 were synthesized in the laboratory of Dr. Huaiwei Ding in Shenyang Pharmaceutical University, and verified by high-performance liquid chromatography (purity >95%) for use in experiments (Supplementary Figure S1). Paclitaxel was purchased from MedChemExpress (HY-B0015, 99.97% purity, United States).
(§2) Cell viability was measured by the MTT assay. HCT116, HL7702, A549, H1993, HCC827, and H460 cells were dispensed into 96-well plates at a density of 1 × 10^5 cells/mL. After 24–48 h incubation, cells were treated with the compounds at different concentrations for the indicated periods. An assay kit (WLA073, Wanlei Co., Liaoning, China), was used according to the manufacturer’s instructions to measure LDH activity, The absorbance at 450 nm was measured with a microplate reader (Elx-800, Bio-Rad, China).
(§3) The preliminary antitumor activity of the series of ZLDI-8 derivatives, NY-1 to -15 was screened by the MTT cell viability assay. […] The antitumor activity of NY-2 on HCT116 cells was concentration- and time-dependent, and slightly better than that of the original compound, ZLDI-8.

LoVo = assay: MTT cell viability assay; assay type: cell-based, human; details: Homo sapiens, LoVo colorectal cancer cells
Method: as §1, §2, §3

[1] = Tissue distribution in rats; assay type: in vivo, SD rats; details: for blood-brain barrier penetration: rat brain tissue concentration very low; for order of concentrations in tissues: 5 min after administration
Method: After fasting for 12 h, 32 SD rats were randomly divided into eight groups of four rats each. Four groups were injected with ZLDI-8 via tail vein (6 mg/kg) at 5 min, 12, 24, and 48 h. The other four groups were injected with NY-2 (6 mg/kg) at the same time points. The heart, liver, spleen, lung, kidney, brain, muscle, and intestines were collected after cervical dislocation at the specified time points and tissue samples were removed. Samples were rinsed with normal saline at 0°C to remove residual blood and debris, blotted dry with filter paper, weighed, and stored at ˗20°C until used.

[2] = Hepatotoxicity and nephrotoxicity experiments in KM mice; assay type: in vivo; details: for pathological changes of liver and kidney tissues (H&E): vs control; for effect on overall antioxidant capacity: T-AOC kit, ABTS method
Method: Animal experiments were approved by the Ethics Committee on Laboratory Animal Management of Shenyang Pharmaceutical University (Approval Document No. SYPU-SQ-001). All animals received humane care according to the local guidelines for the Care and Use of Laboratory Animals of the Shenyang Pharmaceutical University. All animals were housed under specific pathogen-free (SPF) conditions at 25°C with 50% humidity, with free access to food and water for 7 days to adapt. KM mice (male, 4–5 weeks old and weighing 18–22 g) were purchased from Liaoning Changsheng Biotechnology Co., Ltd. (Liaoning, China, animal license #SCXK-2020–0001). For the hepatotoxicity and nephrotoxicity assays, NY-2 was injected via tail vein into KM mice, and the results were used in deciding on the test dose for antitumor activity in a nude mouse cancer model. Its influence on the immune system was also determined. The treatment groups were ZLDI-8, NY-2, DMSO control, and normal saline control, with six mice in each group. The mice were fasted for 12 h before the experiment, but were allowed to drink water freely. ZLDI-8 and NY-2 were dissolved in 1% DMSO containing 1% Tween and 6 mg/kg was administered by a daily tail vein injection for seven consecutive days ([Lu et al., 2020]).
After injection of the compounds, blood was drawn and serum was collected for the determination of ALT and AST levels (Nanjing Jiancheng Bioengineering Institute, China, C009-2-1 and C010-2-1) to assess liver function. Serum creatinine (sCr, Nanjing Jiancheng Bioengineering Institute, China, C011-2-1) and blood urea nitrogen (BUN, Nanjing Jiancheng Bioengineering Institute, China, C013-2-1) were measured to assess renal function. Tumor necrosis factor-α (TNF-α, Cusabio, Wuhan, China, CSB-E04741m) and interleukin-6 (IL-6, Cusabio, Wuhan, China, CSB-E04639m) were used as markers to evaluate the immune inflammatory response, and an assay kit (T-AOC, S0119, Beyotime) was used to measure total antioxidant capacity by the ABTS method. Mice were euthanized by cervical dislocation, liver and kidney tissue was removed and fixed in formalin, dehydrated in ethanol, embedded in paraffin, and sectioned for staining with hematoxylin and eosin (H&E).
KM mice were treated with ZLDI-8 or NY-2 by tail vein injection (6 mg/kg) for 7 days, then the mice were euthanized and liver and kidney tissues were removed and sectioned. For the experiment with BALB/c nude mice, the tail vein injections of NY-2 (6 mg/kg) were continued for 28 days, and the lungs, tumor, heart, liver, and kidney were removed. Trimmed tissue samples were fixed in 4% paraformaldehyde for 24 h, dehydrated in graded ethanol solutions, embedded in paraffin and sectioned. Sections for staining were dewaxed with xylene and then rehydrated, and hematoxylin-eosin staining was performed, after which the sections were again dehydrated in ethanol and cleared with xylene before being mounted on a slide, cover-slipped and examined microscopically. The remainder of the tumors and tissues was frozen in liquid nitrogen for other studies.

[3] = 6 mg/kg daily tail vein injection, 7 days

SMILES | IC50 (HepG2) [µM] | IC50 (LoVo) [µM] | blood-brain barrier penetration [1] | concentration in the brain ([1]; rat, tail vein 6 mg/kg) | tissue with the highest concentration ([1]; rat, tail vein 6 mg/kg) | order of concentrations in tissues ([1]; rat, tail vein 6 mg/kg) | effect on IL-6 and TNF-α levels compared with the control group [2, 3] | levels of AST, ALT, sCr, and BUN compared with the control group ([2]; 6 mg/kg daily tail vein injection, 7 days, serum) | pathological changes of liver and kidney tissues (H&E) [2, 3] | effect on overall antioxidant capacity [2] | BUN compared with the control group ([2]; 6 mg/kg daily tail vein injection, 7 days, serum, only significant difference)
Cc1c(C=C2C(=O)NC(=S)NC2=O)c2ccccc2n1CCOc1ccc(F)cc1 [NY-2] | 20 | 5.82 | do not readily penetrate the blood-brain barrier | almost zero | highest in the lung | lung > liver > spleen > heart > kidney > intestines > brain > muscle | no significant effect | no significant differences | no obvious pathological changes | neither ZLDI-8 nor NY-2 had any overt effect | –
Cc1ccc(OCCn2c(C)c(C=C3C(=O)NC(=S)NC3=O)c3ccccc32)c(C)c1 [ZLDI-8, reference compound] | 22.9 | 9.65 | do not readily penetrate the blood-brain barrier | almost zero | – | lung > liver > spleen > heart > kidney > intestines > brain > muscle | no significant effect | – | no obvious pathological changes | neither ZLDI-8 nor NY-2 had any overt effect | possible decrease
